The results in this text go back to ChEMBL document CHEMBL1123249, “Nitrobenzyl derivatives as bioreductive alkylating agents: evidence for the reductive formation of a reactive intermediate” (1986).

Structures are written as SMILES.

Holding throughout (type): functional, Mus musculus
Test [1] concerns EMT6. As to the kind of experiment: Compound was evaluated for its effect on survival of hypoxic EMT6 tumor cells when exposed to concentration at 10E-6 M.
The subject of test [2] is EMT6. Description: Compound was evaluated for its effect on survival of hypoxic EMT6 tumor cells when exposed to concentration at 10E-8 M.
In test [3] the test system is EMT6. Description: Compound was evaluated for its effect on survival of aerobic EMT6 tumor cells when exposed to concentration at 10e-8 M.
For test [4], the system named is EMT6. As to the kind of experiment: Compound was evaluated for its effect on survival of aerobic EMT6 tumor cells when exposed to concentration at 10E-6 M.
In test [5] the test system is EMT6. As to the kind of experiment: Compound was evaluated for its effect on survival of hypoxic EMT6 tumor cells when exposed to concentration at 10E-4 M.
Test [6] deals with EMT6. As to the kind of experiment: Compound was evaluated for its effect on survival of aerobic EMT6 tumor cells when exposed to concentration at 10E-4 M.
Test [7] deals with EMT6. As to the kind of experiment: Compound was evaluated for its effect on survival of hypoxic EMT6 tumor cells when exposed to concentration at 10e-5 M.
In test [8] the test system is EMT6. Description: Compound was evaluated for its effect on survival of hypoxic EMT6 tumor cells when exposed to concentration at 10e-7 M.
Test [9] deals with EMT6. As to the kind of experiment: Compound was evaluated for its effect on survival of aerobic EMT6 tumor cells when exposed to concentration at 10e-7 M.
Test [10] deals with EMT6. As to the kind of experiment: Compound was evaluated for its effect on survival of aerobic EMT6 tumor cells when exposed to concentration at 10E-5 M.
Test [11] deals with EMT6. Description: Compound was evaluated for its effect on survival of aerobic EMT6 tumor cells when exposed to concentration at 10e-6 M.

Turning to `Nc1nc(SCc2ccc([N+](=O)[O-])cc2)c2nc[nH]c2n1`, the Surviving factor in test [1] worked out at 137%; in [2], 102%; in [3], 79%; in test [4], 106%; in test [5] it was 156%; in test [6], 78%.

As for `Nc1nc(SCc2ccccc2[N+](=O)[O-])c2[nH]cnc2n1`, the Surviving factor in [1] is 82%; in test [2], 94%; in [3] it was 91%; in [4], 95%; in test [5] it was 85%; in test [6], 89%.

With `Nc1nc2[nH]cnc2c(=S)[nH]1` [THIOGUANINE], the Surviving factor was determined as 107% in [7]; 90% in test [1]; 89% in [8]; 106% in test [5]; 95% in [9]; 67% in test [6]. Besides, the Surviving factor in test [10] came to 78%; in [11], 70%.

With `Nc1nc(SCc2cccc([N+](=O)[O-])c2)c2[nH]cnc2n1`, the Surviving factor worked out at 103% in test [7]; 103% in [1]; 88% in [5]; 91% in test [6]; 103% in test [10]; 95% in [11].
